Experimental data as given in a melting point compilation (Tetko et al.; mined from patent text by program, amines drawn as free bases though some values may be those of a salt).

SMILES | melting point [°C]
Nc1ncnc2c1ncn2[C@@H]1C[C@H](O)[C@@H](O)[C@H]1O (racemic) | 282
O=C(Oc1cc(CBr)ccc1F)c1ccccc1 | 180 to 182
Cc1cc(-c2c(-c3ccc(F)cc3)ncn2CCCN2CCOCC2)ccn1 | 116 to 117
CC(C)(C)OC(=O)CC(Cc1ccccc1)NC(=O)C1Cc2ccccc2N1S(=O)(=O)c1ccc(-c2ccc(F)cc2)cc1 (stereo not drawn) | 67 to 73
CCc1nc2c(cnn2CC)c(NC2CCOCC2)c1CNC(=O)c1cc(C)cc(C(=O)NCc2cccc(-c3cccc(C=O)c3)c2)c1 | 109 to 112
CCCCCCNc1nc(N)nc2c1ncn2C1CC(F)C(CO)O1 (stereo not drawn) | 50 to 51
CCCCCCS(=O)(=O)c1c(O)cc(C)oc1=O | 65 to 66
O=C(Nc1ccc(CN2C(=O)[C@H]3CCC[C@H]3N(C(=O)CN3C(=O)c4ccccc4C3=O)c3ccccc32)cc1)c1ccccc1F (relative stereo) | 238 to 240
CCOc1ccc2c(c1)C(C)(c1cc(NC(=O)c3cccnc3)ccc1Cl)C(=O)N2S(=O)(=O)c1ccc(C(=O)NC(C)(C)C)cc1OC (stereo not drawn) | 192
NC(N)=Nc1nc(N2CCOCC2)nc2ccccc12 | 197
Cc1ccc([N+](=O)[O-])cc1N(C)c1nnn[nH]1 | 201 to 205
Cc1cccc(C)c1OCC(=O)NC(C)C(N)=O (stereo not drawn) | 177 to 178
COc1cc(C(C)=O)ccc1OCCCN1CCC(C(O)(c2ccc(F)cc2)c2ccc(F)cc2)CC1 | 142 to 143
COC(=O)CCCC(=O)NS(=O)(=O)c1ccc(N)cc1 | > 260
O=C(O)CCCCCCCCCCCCCCCCCCC(=O)n1nnc2ccccc21 | 112
Cc1oc(C=Cc2cccc(C(F)(F)F)c2)nc1CC(=O)O | 157 to 158
COC(=O)c1ccc(OC)cc1OC(=S)N(C)C | 117 to 120
c1ccc(Nc2ncc3cc4ccccc4n3n2)cc1 | 188 to 193
CC(C)(C)OC(=O)N1Cc2c(Cl)sc(Cl)c2C1 | 112 to 114
CCOC(=O)c1cn(C)c2nc3cc(N4CCNC(c5ccc(N)cc5)C4)c(F)cc3cc2c1=O (racemic) | 180 to 182
CCOC(=O)c1c[nH]c(=O)c2cc(Cl)ccc12 | 243
O=C(OCc1ccccc1)N1CCN(c2ccc(-c3ccnc(Nc4ccc5[nH]nnc5c4)n3)cn2)CC1 | 247 to 249
CCS(=O)CCNC(=O)C1=C(C(=O)Nc2ccc(Cl)cc2F)CCCC1 (stereo not drawn) | 136 to 137
Cc1cc(OCc2ccccc2)cc(C)c1CC(=O)O | 149 to 150

SMILES | melting point [°C]
NC(=O)CNC(=O)c1ccnc(-c2cccc3cc(COc4cccc(C(F)(F)F)c4)sc23)c1 | 185 to 186
Cc1cc(C(O)CN(C)Cc2cc3c(=O)c(C(=O)NCc4ccc(Cl)cc4)cn(C)c3o2)oc1C (stereo not drawn) | 140
C[C@@H](n1cnc2ccc(Br)cc2c1=O)[C@](O)(Cn1cncn1)c1ccc(F)cc1F | 182 to 183
COC(=O)Cc1cccc(C(=O)c2ccc(O)cc2)c1 | 111 to 113
CNS(=O)(=O)c1ccc(Oc2ccc(N)cc2)cc1 | 121 to 122
CCOC(=O)c1cnn(-c2ccc(OC(F)(F)F)cc2)c1N | 102 to 103
COc1ccc(C2C3=C(COC3=O)Nc3ccc4nn[nH]c4c32)c(F)c1 (stereo not drawn) | 308 to 310
CC(=O)Nc1ccc(C(=O)C=CC(=O)O)cc1 | 206 to 207
Cc1cc(C#N)cc(C)c1OCCCC1=NNC(=O)CC1 | 124
CC(C)(O)c1ccc(CNC(=O)c2cccnc2Oc2cc(F)cc(F)c2)cc1 | 68 to 70
CC(C)Cc1ccc(C(=O)O)cc1C#N | 118
N#Cc1sc2c(Cl)cccc2c1Cl | 124 to 128
N#Cc1cccc(-c2cc(-c3ccccc3C(=O)O)on2)c1 | 195 to 196
Cc1cc(C(=O)C(=O)O)c(O)cc1Oc1ccccc1 | 85 to 87
CNC(=S)C1c2cc([N+](=O)[O-])ccc2OC(C)(C)C1O (stereo not drawn) | 203 to 207
COc1ccc(-c2ccc3c(Br)c(OC)ccc3c2)cc1 | 172 to 174
COC(=O)CCCc1cc2nc(Cl)ccc2n1S(=O)(=O)c1ccc(I)cc1 | 117 to 118
CCCCn1c(SC(CC)C(N)=O)nc2c1c(=O)[nH]c(=O)n2C (stereo not drawn) | 253
CC(=O)N1c2ccccc2Sc2nccnc21 | 174 to 175
CNS(=O)(=O)c1ccc(Oc2ccncc2)cc1 | 125 to 127
CC(=O)OCCC1=CCC2C3CCC4=CCC=CC4(C)C3C(O)CC12C (stereo not drawn) | 203 to 205
Cc1cccc(NC(=O)NCC(=O)N(CC(=O)N(C)c2cccc(C)c2)c2ccccc2)c1 | 165
FC(F)(F)c1ccc2nc(N3CCN(c4c(Cl)cccc4Cl)CC3)[nH]c2c1 | 263 to 265
O=C1NC2CCCC1NC2=O | 280 to 283
